# Measurements: patent publication US20110237632A1, “ANTIFOULING COMBINATION COMPRISING 4-BROMO-2-(4- CHLOROPHENYL)-5-(TRIFLUOROMETHYL)-1H-PYRROLE-3-CARBONITRILE” (priority 2008, published 2011)
# Tested on: Tribonema sp. CCAP880/2
# Assay: Poison Plate Assay (algal growth inhibition, MIC and synergy index)
# Assay type: cell-based
# Details: 336 h, BG11 liquid medium, 24-well plates, 21° C., evaluation after 2 weeks of exposure, total ppm of combination at given ratio (I) to (II), read-out: MIC-values in ppm (minimum inhibitory concentration)
# Description: • General procedure: to each well of a 24-well microtiter plate, 1990 μl BG11 medium containing the test compounds in one of the concentrations of a dose series is added. The liquid freshwater mineral medium is inoculated by adding an aliquot of an actively growing, 3 week old liquid BG11 culture of algae and incubated at 21° C., 65% relative humidity, 1000 Lux 16 hr/day. The growth is evaluated after two weeks. • Test compounds: 4-bromo-2-(4-chloro-phenyl)-5-(trifluoromethyl)-1H-pyrrole-3-carbonitrile as component (I) butylBIT as component (II); • Stock solution: 8000 and 80.000 ppm in DMSO
# • Test combinations: • Concentrations: 1.6-1.2-0.9-0.68-0.51-0.38-0.29-0.21-0.16-0.12-0.09-0.07 ppm • Culture medium: algae: BG 11 liquid mineral medium • Experimental set up: 24-well plates • Species of algae: Tribonema sp. CCAP880/2 • Inoculum: algae: […] of a 1/10 dilution in BG 11 of a two week old culture • Culture conditions: 21° C., 65% relative humidity, 1000 lux, 16 hour photoperiod • Evaluation: algae: after 2 weeks of exposure
# Synergism between component (I) and one of the components (II) was determined by a commonly used and accepted method described by Kull F. C. et al. in Applied Microbiology, 9, 538-541 (1961) using the Synergy Index, which is calculated as follows for two compounds A and B: […]
smiles,measurement,value
"CCCCn1sc2ccccc2c1=O [(I) + (II) 0 + 100, 2-butyl-1,2-benzisothiazol-3(2H)one]",MIC,2.1 µg/mL
